Assay results taken from patent US20070224635A1, “Regulated Stop Codon Readthrough” (Maxygen Holdings, Ltd., priority 2004, published 2007).

Experiments:
[1] = test system: premature UAG mutation; details: cultured mammalian cells; cited from earlier work
[2] = test system: nonsense mutation in CFTR; details: cell line carrying a nonsense mutation in CFTR; cited from earlier work
[3] = test system: UGA stop codon (UGAC tetranucleotide); test: FACS analysis of membrane-anchored protein C after G-418-induced readthrough, PC-UGAC-GPI construct; format: cell-based, Chinese hamster (CHO-K1 cells); details: with G-418, background in absence of G-418 about 13%
Experimental: (§1) As a control, the retroviral vector pLenti6-PC-GPI was used to transfect HEK293FT cells and produce retrovirus particles. After 48 hours, supernatants containing retroviral particles were harvested, filter-sterilized to remove cell debris, and subsequently used to infect CHO-K1 cells. CHO-K1 cells were selected for resistance to the Blasticidin antibiotic at the concentration of 5 mg/l for 10 days. The resulting pools of Blasticidin-resistant cells were transferred into 6 culture flasks for each cell pool and grown to 25% confluency. To induce translational readthrough, the antibiotic G-418 was added to the culture flasks at final concentrations ranging from 12.5 mg/l to 100 mg/l and flasks were incubated for another 48 hours at 37° C. […] Labeled retroviral cell lines were analyzed by FACS for membrane-anchored recombinant PC using a FACScalibur™ (Becton Dickinson) instrument with an excitation wave length of 488 nm and an emission filter of 585 nm.
(§2) The results shown in FIG. 4 illustrate that both cell lines expressing the PC-UAAC-GPI and PC-UGAC-GPI reporters display PC at the cell surface in the presence of aminoglycoside. […] Furthermore, the amount of recombinant membrane-anchored PC is more abundant for the PC-UGAC-GPI construct than for the PC-UAAC-GPI construct, and this applies to all aminoglycoside concentrations that were assessed.

[4] = test system: UAA stop codon (UAAC tetranucleotide); test: FACS analysis of membrane-anchored protein C after G-418-induced readthrough, PC-UAAC-GPI construct; format: cell-based, Chinese hamster (CHO-K1 cells); details: with G-418, background in absence of G-418 about 0.5%
Experimental: as §1, §2

[5] = test system: UAA stop codon; test: FACS detection of membrane-anchored FVII (FVII-UAA-GPI) in transfected CHO-K1 cells without antibiotic resistance gene; format: cell-based, Chinese hamster (CHO-K1 cells)
Experimental: The resulting PCR product encompassed the CMV promoter, the b-globin intron, the FVII gene, the UAA stop codon, the GPI anchor signal and the b-globin poly-adenylation signal (FIG. 11). The PCR product was purified and subsequently used to transfect CHO-Kcells with Lipofectamine™ 2000 (Invitrogen) as described above. Additionally, a flask containing CHO-K1 cells was incubated with Lipofectamine™ 2000 but without DNA as a negative control. Five hours after transfection, G-418 was added to the two culture flasks at a final concentration of 100 mg/L to promote translational readthrough. […] Labeled retroviral cell lines were analyzed by FACS for membrane-anchored recombinant FVII using a FACSVantage™ (Becton Dickinson) instrument with an excitation wave length of 488 nm and an emission filter of 585 nm.
Because expression of the recombinant FVII protein is correlated with expression of the FVII-GPI protein fusion arising from aminoglycoside-mediated translational readthrough, transgenic cells can be selected by means of FACS based on membrane-anchored FVII detection. […] Approximately 2500 cells from gate R3 of the transfected cells were sorted as a pool and grown for 9 days in the absence of antibiotic, after which translational readthrough was induced by treating the cells with G-418 at 100 mg/L for 2 days. […]

NC[C@@H]1O[C@H](O[C@H]2[C@@H](O)[C@H](O[C@@H]3[C@@H](O)[C@H](N)C[C@H](N)[C@H]3O[C@H]3O[C@H](CO)[C@@H](O)[C@H](O)[C@H]3N)O[C@@H]2CO)[C@H](N)[C@@H](O)[C@@H]1O [paromomycin]
synthesis of full-size protein from mutant gene [1]: partially restore the synthesis of a full-size protein

gentamicin
expression of CFTR protein [2]: restore the expression

CN[C@@H]1[C@@H](O)[C@@H](O[C@@H]2[C@@H](O)[C@H](O[C@H]3O[C@H]([C@@H](C)O)[C@@H](O)[C@H](O)[C@H]3N)[C@@H](N)C[C@H]2N)OC[C@]1(C)O [G-418]
FACS-positive cells (up to) [3]: about 25% | FACS-positive cells (up to) [4]: about 10% | cells positive for FVII display, second FACS round ([5]; G-418 100 mg/L for 2 days after 9 days growth, non-transfected control 1.1%, FIG. 13): 3.4% | transfected CHO-K1 cells exhibiting fluorescence signals (gate R3), first FACS round ([5]; G-418 100 mg/L, negative control 0.4%, FIG. 12): 7.1%
